Test results reported in patent US20210323950A1, “HERBICIDALLY ACTIVE BICYCLIC BENZOYLPYRAZOLES” (Bayer Aktiengesellschaft, priority 2018, published 2021).

Tests used:
Assay type in all cases: in vivo
[1] = test system: Abutilon theophrasti (ABUTH); assay: Pre-emergence herbicidal action against ABUTH; details: scored visually after about 3 weeks vs untreated controls
Summary of the method: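 Sown pots had WP or EC formulations sprayed onto the covering soil as aqueous suspension/emulsion with 0.5% additive, then were kept in a greenhouse. After about 3 weeks, damage was scored visually as % versus untreated controls (100% = plants dead, 0% = like controls).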

[2] = test system: Echinochloa crus-galli (ECHCG); assay: Post-emergence herbicidal action against ECHCG; details: 20 g/ha, post-emergence at one-leaf stage, rated visually after about 3 weeks vs untreated controls
Summary of the method: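 Greenhouse plants in sandy loam were sprayed at the one-leaf stage, 2-3 weeks after sowing. Activity was scored visually after about 3 weeks against untreated controls (0% = like control, 100% = dead).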

[3] = test system: Amaranthus retroflexus (AMARE); assay: Post-emergence herbicidal action against AMARE; details: 20 g/ha, post-emergence at one-leaf stage, rated visually after about 3 weeks vs untreated controls
Summary of the method: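 Greenhouse-grown plants in sandy loam were treated at the one-leaf stage, 2–3 weeks after sowing. Activity was rated visually after about 3 weeks against untreated controls (100% = plants dead, 0% = like control).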

[4] = test system: Echinochloa crus-galli (ECHCG); assay: Pre-emergence herbicidal action against ECHCG; details: scored visually after about 3 weeks vs untreated controls
[5] = test system: Abutilon theophrasti (ABUTH); assay: Post-emergence herbicidal action against ABUTH; details: 20 g/ha, post-emergence at one-leaf stage, rated visually after about 3 weeks vs untreated controls
Experimental: (§1) ABUTH: Abutilon theophrasti 2. Post-Emergence Herbicidal Action and Crop Plant Compatibility Seeds of monocotyledonous and dicotyledonous weeds and crop plants are placed in sandy loam in plastic or organic planting pots, covered with soil and cultivated in a greenhouse under controlled growth conditions. 2 to 3 weeks after sowing, the test plants are treated at the one-leaf stage. The compounds of the invention, formulated in the form of wettable powders (WP) or as emulsion concentrates (EC), are then sprayed onto the green parts of the plants as aqueous suspension or emulsion with addition of 0.5% additive at a water application rate of […] (converted). After the test plants had been kept in the greenhouse under optimum growth conditions for about 3 weeks, the activity of the preparations is rated visually in comparison to untreated controls. The tables below show the herbicidal activity of numerous compounds according to the invention against important harmful plants. For example, 100% activity=the plants have died, 0% activity=like control plants.

[6] = test system: Amaranthus retroflexus (AMARE); assay: Pre-emergence herbicidal action against AMARE; details: scored visually after about 3 weeks vs untreated controls
Summary of the method: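 Formulated compounds (WP or EC) sprayed onto soil covering sown seeds, with 0.5% additive at […] water (converted). Greenhouse-grown about 3 weeks, then damage scored visually as percent versus untreated controls (100% = dead, 0% = like control).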

[7] = test system: Viola tricolor (VIOTR); assay: Post-emergence herbicidal action against VIOTR; details: 20 g/ha, post-emergence at one-leaf stage, rated visually after about 3 weeks vs untreated controls
Experimental: as §1, with “VIOTR: Viola tricolor” for “ABUTH: Abutilon theophrasti”

Row | Compound | Pre-emergence action against ABUTH ([1]; 320 g/ha) [%] | Post-emergence action against ECHCG [2] [%] | Post-emergence action against AMARE [3] [%] | Pre-emergence action against ECHCG ([4]; 320 g/ha) [%] | Post-emergence action against ABUTH [5] [%] | Pre-emergence action against AMARE ([6]; 320 g/ha) [%] | Post-emergence action against VIOTR [7] [%] | Pre-emergence action against ECHCG ([4]; 80 g/ha) [%] | Pre-emergence action against AMARE ([6]; 80 g/ha) [%] | Pre-emergence action against ABUTH ([1]; 80 g/ha) [%]
1 | Cn1ncc(C(=O)c2ccc(C(F)(F)F)c3c2OCS3)c1O [Example 1-13] | 100 | 90 | 90 | 100 | 90 | 100 | – | – | – | –
2 | Cn1ncc(C(=O)c2ccc(C(F)(F)F)c3c2OCCS3)c1O [Example 1-15] | – | 80 | 80 | – | – | – | 80 | 80 | 100 | –
3 | Cn1ncc(C(=O)c2ccc(C(F)(F)F)c3c2OC[S+]3[O-])c1O (stereo not shown) [Example 1-28] | 100 | 90 | 100 | 100 | 90 | – | 90 | – | – | –
4 | Cn1ncc(C(=O)c2ccc(C(F)(F)F)c3c2OCC[S+]3[O-])c1O (stereo not shown) [Example 1-30] | – | 100 | 100 | – | 80 | – | 90 | 100 | 100 | 100
5 | CCn1ncc(C(=O)c2ccc(C(F)(F)F)c3c2OCC[S+]3[O-])c1O (stereo not shown) [Example 1-35] | – | 80 | 100 | – | 90 | – | 100 | 100 | 100 | 100
6 | Cc1nn(C)c(O)c1C(=O)c1ccc(C(F)(F)F)c2c1OCC[S+]2[O-] (stereo not shown) [Example 1-40] | – | 90 | 80 | – | 80 | – | 80 | 80 | 100 | 100
7 | Cn1ncc(C(=O)c2ccc(C(F)(F)F)c3c2OCCS3(=O)=O)c1O [Example 1-45] | – | – | 100 | – | – | – | 90 | 100 | 100 | 100
8 | CCn1ncc(C(=O)c2ccc(C(F)(F)F)c3c2OCCS3(=O)=O)c1O [Example 1-50] | – | 80 | 100 | – | 90 | – | – | 100 | 100 | 100
9 | Cc1nn(C)c(O)c1C(=O)c1ccc(C(F)(F)F)c2c1OCCS2(=O)=O [Example 1-55] | – | 100 | 100 | – | 90 | – | 80 | 100 | 100 | 100
10 | Cn1nc(C2CC2)c(C(=O)c2ccc(C(F)(F)F)c3c2OCC[S+]3[O-])c1O (stereo not shown) [Example 1-116] | – | 100 | 90 | – | 90 | – | – | 80 | 100 | 80
11 | Cn1ncc(C(=O)c2ccc(C(F)(F)C(F)(F)F)c3c2OCS3)c1O [Example 1-128] | – | 90 | 80 | – | – | – | – | 90 | 100 | 90
